Reference: patent publication US11345700B2, “Methods of preparing inhibitors of influenza viruses replication” (priority 2013, dated 2022)

Assay: Human influenza challenge: safety assessment, adverse events
Type: in vivo, healthy volunteers (humans)
Source text: A list of adverse events occurring in ≥10% of subjects in any treatment group is presented (Table 29). Influenza-like illness was the most frequently reported adverse event, and was reported by an approximately equal proportion of subjects in the placebo and Compound (1) groups.

SMILES: O=C(O)[C@H]1[C@H]2CC[C@H](CC2)[C@@H]1Nc1nc(-c2c[nH]c3ncc(F)cc23)ncc1F [Compound (1)]
- tolerability (100 mg to 1200/600 mg QD for 5 days, healthy volunteers): well tolerated
- Adverse event: Alanine aminotransferase increased (100 mg, N = 16): 3 (18.8) n(%)
- Adverse event: Aspartate aminotransferase increased (100 mg, N = 16): 1 (6.3) n(%)
- Adverse event: Blood phosphorus decreased (100 mg, N = 16): 3 (18.8) n(%)
- Adverse event: Dermatitis contact (100 mg, N = 16): 3 (18.8) n(%)
- Adverse event: Headache (100 mg, N = 16): 1 (6.3) n(%)
- Adverse event: Influenza-like illness (100 mg, N = 16): 8 (50.0) n(%)
- Adverse event: Malaise (100 mg, N = 16): 2 (12.5) n(%)
- Adverse event: Nasal congestion (100 mg, N = 16): 0 n(%)
- Adverse event: Nausea (100 mg, N = 16): 0 n(%)
- Adverse event: Oropharylngeal pain (100 mg, N = 16): 2 (12.5) n(%)
- Adverse event: Rhinorrhea (100 mg, N = 16): 0 n(%)
- Adverse event: Spirometry abnormal (100 mg, N = 16): 2 (12.5) n(%)
- Adverse event: Tension Headache (100 mg, N = 16): 0 n(%)
- Adverse event: Alanine aminotransferase increased (400 mg, N = 19): 1 (5.3) n(%)
- Adverse event: Aspartate aminotransferase increased (400 mg, N = 19): 1 (5.3) n(%)
- Adverse event: Blood phosphorus decreased (400 mg, N = 19): 0 n(%)
- Adverse event: Dermatitis contact (400 mg, N = 19): 0 n(%)
- Adverse event: Headache (400 mg, N = 19): 4 (21.1) n(%)
- Adverse event: Influenza-like illness (400 mg, N = 19): 10 (52.6) n(%)
- Adverse event: Malaise (400 mg, N = 19): 0 n(%)
- Adverse event: Nasal congestion (400 mg, N = 19): 0 n(%)
- Adverse event: Nausea (400 mg, N = 19): 2 (10.5) n(%)
- Adverse event: Oropharylngeal pain (400 mg, N = 19): 0 n(%)
- Adverse event: Rhinorrhea (400 mg, N = 19): 2 (10.5) n(%)
- Adverse event: Spirometry abnormal (400 mg, N = 19): 4 (21.1) n(%)
- Adverse event: Tension Headache (400 mg, N = 19): 2 (10.5) n(%)
- Adverse event: Alanine aminotransferase increased (900/600 mg, N = 19): 0 n(%)
- Adverse event: Aspartate aminotransferase increased (900/600 mg, N = 19): 0 n(%)
- Adverse event: Blood phosphorus decreased (900/600 mg, N = 19): 6 (31.6) n(%)
- Adverse event: Dermatitis contact (900/600 mg, N = 19): 0 n(%)
- Adverse event: Headache (900/600 mg, N = 19): 0 n(%)
- Adverse event: Influenza-like illness (900/600 mg, N = 19): 9 (47.4) n(%)
- Adverse event: Malaise (900/600 mg, N = 19): 0 n(%)
- Adverse event: Nasal congestion (900/600 mg, N = 19): 0 n(%)
- Adverse event: Nausea (900/600 mg, N = 19): 1 (5.3) n(%)
- Adverse event: Oropharylngeal pain (900/600 mg, N = 19): 1 (5.3) n(%)
- Adverse event: Rhinorrhea (900/600 mg, N = 19): 0 n(%)
- Adverse event: Spirometry abnormal (900/600 mg, N = 19): 0 n(%)
- Adverse event: Tension Headache (900/600 mg, N = 19): 1 (5.3) n(%)
- Adverse event: Alanine aminotransferase increased (1200/600 mg, N = 18): 6 (33.3) n(%)
- Adverse event: Aspartate aminotransferase increased (1200/600 mg, N = 18): 2 (11.1) n(%)
- Adverse event: Blood phosphorus decreased (1200/600 mg, N = 18): 4 (22.2) n(%)
- Adverse event: Dermatitis contact (1200/600 mg, N = 18): 0 n(%)
- Adverse event: Headache (1200/600 mg, N = 18): 2 (11.1) n(%)
- Adverse event: Influenza-like illness (1200/600 mg, N = 18): 7 (38.9) n(%)
- Adverse event: Malaise (1200/600 mg, N = 18): 0 n(%)
- Adverse event: Nasal congestion (1200/600 mg, N = 18): 1 (5.6) n(%)
- Adverse event: Nausea (1200/600 mg, N = 18): 0 n(%)
- Adverse event: Oropharylngeal pain (1200/600 mg, N = 18): 0 n(%)
- Adverse event: Rhinorrhea (1200/600 mg, N = 18): 1 (5.6) n(%)
- Adverse event: Spirometry abnormal (1200/600 mg, N = 18): 4 (22.2) n(%)
- Adverse event: Tension Headache (1200/600 mg, N = 18): 0 n(%)
- adverse event incidence: decreased blood phosphorus level (Compound (1) groups): 18.1%
- adverse event incidence: nasal congestion (Compound (1) groups): 1.4%
- adverse event incidence: rhinorrhea (Compound (1) groups): 4.2%
- Adverse event: Alanine aminotransferase increased (Pooled Compound (1), N = 72): 10 (13.9) n(%)
- Adverse event: Aspartate aminotransferase increased (Pooled Compound (1), N = 72): 4 (5.6) n(%)
- Adverse event: Blood phosphorus decreased (Pooled Compound (1), N = 72): 13 (18.1) n(%)
